Measured values published in patent publication US5322850A, “Antiallergic piperidine derivatives of benzimidazole” (Fabrica Espanola de Productos Quimicos y Farmaceuticos, S.A., priority 1992, dated 1994).
Values joined by “and” are separate entries in the source; they are usually repeats but may differ in a detail not shown here. Equal entries are not always repeated.

Legend:
[1] = tested on: homologous passive cutaneous anaphylaxis (PCA); test: Antiallergic activity in vivo: vascular permeability increase induced by 48 hours homologous passive cutaneous anaphylaxis (PCA) in rats; design: species or system rat (female Wistar)
Procedure: Antiallergic activity in vivo: Vascular permeability increase induced by 48 hours homologous passive cutaneous anaphylaxis (PCA) in rats. Female Wistar rats (120-150 g) were used. They were sensitized passively by intradermic injections of homologous ovoalbumin antiserum on both sides of the middle shaved-back line of the rat. Forty-eight hours later each test compound was administered orally at doses of 1 mg/kg (5 mg/kg when R^1 is a methyl group) and 1 h later PCA reaction was induced by iv injection of Evans blue solution and ovoalbumin in PSS solution. The animals were sacrificed 30 minutes after the dye injection and the skin was removed. The extravasated dye sites were extracted with formamide and the dye spectrophotometrically evaluated.

H1 [2] = test: H1-antihistaminic activity in vivo: vascular permeability increase induced by histamine in rats; design: species or system rat (female Wistar)
Procedure: H1 -antihistaminic activity in vivo: Vascular permeability increase induced by histamine in rats.
Female Wistar rats (120-150 g) were used. They were fasted for 18 hours prior to the assay. […] 30 min after the dye injection, animals were sacrificed and the skin was removed. The extravasated dye sites were extracted with formamide and the dye spectrophotometrically evaluated.

H1 [3] = biological target: H1 (Cavia porcellus, UniProt P31389); test: H1-antihistaminic activity in vitro: histamine-induced contractions of isolated guinea-pig ileum; details: pH 7.4, 37° C., 20 min after antagonist, (n) given
Procedure: H1 -antihistaminic activity in vitro: Histamine-induced contractions of isolated guinea-pig ileum.
Distal ileum was obtained from male albino guinea pig (300-500 g). All animals were fasted overnight and killed by cervical dislocation and then exsanguinated. […] The tissue was washed by upward displacement of the bathing fluid. With an effective 1.2 g loading tension, the ileum was kept for 45 min (stabilization period). An accumulative dose-response curve for histamine was isotonically recorded with increasing concentrations and the tissue, after washing with Tyrode solution, was allowed to equilibrate. Twenty minutes later a second concentration-response curve was obtained previous addition of different concentrations of antagonist drugs. The results were calculated from the concentration-response curves for histamine at each drug concentration. All the concentrations were tested 2 to 4 times.

CNS = test: Preliminary study similar to Irwin's test in mice: effect on CNS; type: in vivo; design: key: --: If no effects were detected, no figures are shown
Procedure: A preliminary study similar to Irwins's test in mice was carried out at doses of 100 and 300 mg/kg at 1, 2, 3, 4 and 24 hours after the treatment. As reference ketotifene was used.

[4] = rat, oral, 1 mg/kg, 1 h before PCA reaction
[5] = rat, oral, 1 mg/kg, 1 hour before histamine
[6] = 100 mg/kg, 1, 2, 3, 4 and 24 hours
[7] = 300 mg/kg, 1, 2, 3, 4 and 24 hours

H1 (Cavia porcellus, UniProt P31389), sequence (P31389 whole entry): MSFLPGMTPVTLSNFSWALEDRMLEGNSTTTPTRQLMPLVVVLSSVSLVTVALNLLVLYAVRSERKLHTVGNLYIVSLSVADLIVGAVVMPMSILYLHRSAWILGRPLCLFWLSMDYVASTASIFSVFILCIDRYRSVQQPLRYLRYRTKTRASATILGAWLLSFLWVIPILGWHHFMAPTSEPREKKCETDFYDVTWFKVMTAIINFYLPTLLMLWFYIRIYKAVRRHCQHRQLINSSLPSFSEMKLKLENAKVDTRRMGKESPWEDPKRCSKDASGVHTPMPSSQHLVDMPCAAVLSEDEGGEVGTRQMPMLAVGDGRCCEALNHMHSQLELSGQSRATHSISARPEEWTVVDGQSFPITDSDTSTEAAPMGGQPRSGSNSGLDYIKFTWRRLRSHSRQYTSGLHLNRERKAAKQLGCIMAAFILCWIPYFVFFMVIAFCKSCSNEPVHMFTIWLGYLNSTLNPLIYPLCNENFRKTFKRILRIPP

Structure (SMILES)	Inhibition of the increase of vascular permeability by P.C.A. [1, 4] [%]	Inhibition of the increase of vascular permeability by Histamine (H1 [2]; [5]) [%]	pD'2 (H1 [3])	Convulsions (CNS; [6])	Death (CNS; [6])	Hypothermia (CNS; [6])	Loss of pinneal reflex (CNS; [6])	Loss of right-time reflex (CNS; [6])	Palpebral Ptosis (CNS; [6])	Spontaneous Activity decrease (CNS; [6])	Convulsions (CNS; [7])	Death (CNS; [7])	Hypothermia (CNS; [7])	Loss of pinneal reflex (CNS; [7])	Loss of right-time reflex (CNS; [7])	Palpebral Ptosis (CNS; [7])	Spontaneous Activity decrease (CNS; 300 mg/kg, 1, 2, 3, 4 and 24 hours, 300 mg/kg)	Spontaneous Activity decrease (CNS; [7])	Inhibition of the increase of vascular permeability by P.C.A. ([1]; po, 5 mg/kg) [%]	Inhibition of the increase of vascular permeability by Histamine (H1 [2]; po, 5 mg/kg) [%]
CCOCCn1c(C2CCN(CCc3ccc(C(C)(C)C)cc3)CC2)nc2ccccc21 [2 CH2 CH3, 2-[1-(2-(4-(1,1-dimethylethyl)-phenyl)ethyl)piperidin-4-yl]-1-(2-ethoxyethyl)-1H-benzimidazole]	40	60	7.52	--	--	--	--	--	--	--	--	--	--	--	--	--	-- and 2/4			
CC(C)OCCn1c(C2CCN(Cc3ccc(C(C)(C)C)cc3)CC2)nc2ccccc21 [1 CH(CH3)2, 2-[1-((4-(1,1-dimethylethyl)phenyl)methyl)piperidin-4-yl]-1-[(2-(1-methylethoxy)ethyl)]-1H-benzimidazole]	40	50	7.30	--	--	--	--	--	--	--	--	--	--	--	--	--		--		
CC(C)(C)c1ccc(C(O)CCCN2CCC(C(O)(c3ccccc3)c3ccccc3)CC2)cc1 (stereo not shown) [Terfenadine, reference compound]	37	20																		
COCCn1c(C2CCN(Cc3ccc(C(C)(C)C)cc3)CC2)nc2ccccc21 [1 CH3, 2-[1-((4-(1,1-dimethylethyl)phenyl)methyl)piperidine-4-yl]-1-(2-methoxyethyl)-1H-benzimidazole]			6.75	--	--	2/4	--	--	--	3/4	4/4	4/4	4/4	4/4	4/4	4/4		4/4	70	70
CN1CCC(=C2c3ccccc3CC(=O)c3sccc32)CC1 [Ketotifene, reference compound]				--	--	--	--	--	--	--	--	--	1/4	--	1/4	1/4		2/4		
COc1ccc(CCN2CCC(Nc3nc4ccccc4n3Cc3ccc(F)cc3)CC2)cc1 [Astemizole, reference compound]	38																			
CCOCCn1c(C2CCN(Cc3ccc(C(C)(C)C)cc3)CC2)nc2ccccc21 [1 CH2 CH3]	47	70	7.08	--	--	--	--	--	--	--	4/4	--	--	--	--	--		4/4		
CC(C)OCCn1c(C2CCN(CCc3ccc(C(C)(C)C)cc3)CC2)nc2ccccc21 [2 CH(CH3)2, 2-[1-(2-(4-(1,1-dimethylethyl)-phenyl)ethyl)piperidin-4-yl]-1-[2-(1-methylethoxy)ethyl]-1H-benzimidazole]	30	25	7.00																	
